Experimental data from paper PMC12542672, “Pleiotropic role of PAX cyclolipopeptides in the Xenorhabdus bacterium mutualistically associated with entomopathogenic nematodes” (Applied and Environmental Microbiology, 2025).
Converted amounts (≈) assume the structure as drawn. Like-named read-outs stand apart in the source and are kept apart here. Where a SMILES comes first, the peptide text is derived from it. Bridges are numbered along the chain shown (N, C = ends). Where no end group is shown, it is not given here. [ ]: non-standard residue; d: D form. The star is where a group is joined. Hexadecanoyl(3R-OH) = CCCCCCCCCCCCC[C@@H](O)CC(=O)*; Tetradecanoyl(3R-OH) = CCCCCCCCCCC[C@@H](O)CC(=O)*; X1 = CC[C@H](C)CCCCC(=O)*; Dab = NCC[C@H](N)C(=O)O

Experiments:
X. nematophila WT = type: cell-based, Xenorhabdus nematophila F1
Method: (§1) Bacteria were routinely grown in Lysogeny Broth (Sigma-Aldrich) medium at 28°C (Xenorhabdus, S. maltophilia, P. protegens, Ochrobactrum sp., Achromobacter sp., A. faecalis, Pseudochrobactrum sp., Brevundimonas sp., E. mundtii, and D. rugosa) or 37°C (Escherichia coli and M. luteus). When required, antibiotics were used at the following final concentrations: gentamicin (Sigma-Aldrich), 20 µg mL^−1 and chloramphenicol (Sigma-Aldrich), 20 µg mL^−1 for E. coli strains and 15 µg mL^−1 for X. nematophila (or 8 µg mL^−1 for allelic exchange).
(§2) MICs were determined in accordance with CLSI guidelines ([73]) with the following modifications: 5 mL of MHB broth (Bio-Rad) was inoculated with an overnight culture in LB broth and grown to a 0.6 < OD600 < 0.9. The inoculum for the microplate was prepared as described in the CLSI guide, with dilution in MHB to approximately 10^4 CFU mL^−1. Ninety-six-well low-binding plates were incubated for 48 h at 28°C with slow shaking. The peptides used in the analyses were supplied by the following providers: cecropin A (Sigma-Aldrich), cecropin B1 (NeoMPS S.A.) ([74]), cecropin C (Proteogenix), cecropin P1 (Sigma-Aldrich), drosocin (Eurogentec), colistin (Sigma-Aldrich), polymyxin B (Sigma-Aldrich), and NOSO 95C (odilorhabdin, Nosopharm S.A.). Synthetic PAX1′, PAX2′, and PAX7 were provided by the SynBio3 platform (IBMM, Montpellier, France), and their structure is shown in Fig. S1.

X. nematophila ∆paxA = type: cell-based, Xenorhabdus nematophila F1; conditions: CLSI with modifications, MHB broth, approx. 10^4 CFU mL^−1, 96-well low-binding plates, 48 h at 28°C, slow shaking
Method: as §1
The ΔpaxA mutant was constructed using the same experimental strategy as for the construction of the ΔngrA mutant from the WT strain X. nematophila F1 ([37]). The upstream and downstream regions of the paxA gene were amplified by PCR with the L-PCR1-paxA-SalI and R-PCR1-paxA-BamHI primers for the upstream region (621 bp) and the L-PCR2-paxA-BamHI and R-PCR2-paxA-SpeI primers for the downstream region (601 bp). The two fragments obtained were inserted, together with the 3.8 kb BamHI fragment ΩCam cassette from pHP45-ΩCm, conferring resistance to chloramphenicol, into pJQ200SK digested with SalI and SpeI for insertion of the ΩCam cassette between the two PCR fragments. The resulting plasmid, pJQ-paxA::ΩCm, was used to transform E. coli WM3064 and was introduced into X. nematophila F1 by mating. Allelic exchange was performed as previously described ([68]). ΩCam insertion was confirmed by PCR analysis using primers L-paxTA and R-verif-pax. The absence of PAX peptide products was assessed by mass spectrometry analysis, as described below. The clone obtained was called ΔpaxA.
as §2

X. nematophila ∆ngrA = assay: MIC assay of antimicrobial peptides on X. nematophila ∆ngrA; type: cell-based, Xenorhabdus nematophila F1; conditions: CLSI with modifications, MHB broth, approx. 10^4 CFU mL^−1, 96-well low-binding plates, 48 h at 28°C, slow shaking
Method: as §1, §2

Achromobacter sp. D7.1 = type: cell-based; conditions: 48 h
Method: as §1, §2

Alcaligenes faecalis SC = type: cell-based; conditions: 48 h
Method: as §1, §2

Brevundimonas sp. ALL3 = type: cell-based; conditions: 48 h
Method: as §1, §2

Diutina rugosa GC = type: cell-based; conditions: 48 h
Method: as §1, §2

Enterococcus mundtii SP = type: cell-based; conditions: 48 h
Method: as §1, §2

[1] = system: Micrococcus luteus CIP103430; type: cell-based; conditions: CIP103430, 48 h
Method: as §1, §2

Ochrobactrum sp. ALL4 = type: cell-based; conditions: 48 h
Method: as §1, §2

[2] = system: Pseudochrobactrum sp. AL3; type: cell-based; conditions: 48 h
Method: as §1, §2

[3] = system: Pseudomonas protegens PPSC10; type: cell-based; conditions: 48 h
Method: as §1, §2

[4] = system: Stenotrophomonas maltophilia ALL5; type: cell-based; conditions: 48 h
Method: as §1, §2

[5] = X. nematophila WT, CLSI with modifications, MHB broth, approx. 10^4 CFU mL^−1, 96-well low-binding plates, 48 h at 28°C, slow shaking

| Molecule | Minimum inhibitory concentration (X. nematophila WT; [5]) [µg/mL] | Minimum inhibitory concentration (X. nematophila ∆paxA) [µg/mL] | Minimum inhibitory concentration (X. nematophila ∆ngrA) [µg/mL] | Minimum inhibitory concentration (X. nematophila WT; 48 h) | Minimum inhibitory concentration (Achromobacter sp. D7.1) [µg/mL] | Minimum inhibitory concentration (Alcaligenes faecalis SC) [µg/mL] | Minimum inhibitory concentration (Brevundimonas sp. ALL3) [µg/mL] | Minimum inhibitory concentration (Diutina rugosa GC) [µg/mL] | Minimum inhibitory concentration (Enterococcus mundtii SP) [µg/mL] | Minimum inhibitory concentration [1] [µg/mL] | Minimum inhibitory concentration (Ochrobactrum sp. ALL4) [µg/mL] | Minimum inhibitory concentration [2] [µg/mL] | Minimum inhibitory concentration [3] [µg/mL] | Minimum inhibitory concentration [4] [µg/mL] |
| --- | --- | --- | --- | --- | --- | --- | --- | --- | --- | --- | --- | --- | --- | --- |
| CC[C@H](C)CCCCC(=O)N[C@@H](CCN)C(=O)N[C@H](C(=O)N[C@@H](CCN)C(=O)N[C@H]1CCNC(=O)[C@H]([C@@H](C)O)NC(=O)[C@H](CCN)NC(=O)[C@H](CCN)NC(=O)[C@H](CC(C)C)NC(=O)[C@@H](CC(C)C)NC(=O)[C@H](CCN)NC1=O)[C@@H](C)O [Colistin, colistin] (X1-[Dab]T[Dab][Dab][Dab][dL]L[Dab][Dab]T; lactam 4-C (inferred); N-terminus assumed) | 3.9 (≈ 3.33 µM) | 1.95 (≈ 1.67 µM) | 3.9 (≈ 3.33 µM) | – | – | – | – | – | – | – | – | – | – | – |
| CC[C@H](C)CCCCC(=O)N[C@@H](CCN)C(=O)N[C@H](C(=O)N[C@@H](CCN)C(=O)N[C@H]1CCNC(=O)[C@H]([C@@H](C)O)NC(=O)[C@H](CCN)NC(=O)[C@H](CCN)NC(=O)[C@H](CC(C)C)NC(=O)[C@@H](Cc2ccccc2)NC(=O)[C@H](CCN)NC1=O)[C@@H](C)O [Polymyxin B, polymyxin B] (X1-[Dab]T[Dab][Dab][Dab][dF]L[Dab][Dab]T; lactam 4-C (inferred); N-terminus assumed) | 0.245 (≈ 0.204 µM) | 0.245 (≈ 0.204 µM) | 0.245 (≈ 0.204 µM) | – | – | – | – | – | – | – | – | – | – | – |
| CCCCCCCCCCC[C@@H](O)CC(=O)NCC(=O)N[C@@H](CCCCN)C(=O)N[C@@H]1CCCCNC(=O)[C@H](CCCCN)NC(=O)[C@@H](CCCCN)NC(=O)[C@@H](CCCCN)NC(=O)[C@H](CCCCN)NC1=O [Synthetic PAX1′] ({Tetradecanoyl(3R-OH)}-GK[dK]K[dK][dK]K; lactam 3-C (inferred)) | – | – | – | >1,500 µg mL^−1 | > 250 | > 250 | 31.25 (≈ 29.7 µM) | 25 (≈ 23.8 µM) | 125 (≈ 119 µM) | 3.9 (≈ 3.71 µM) | > 250 | > 250 | > 250 | > 250 |
| CCCCCCCCCCC[C@@H](O)CC(=O)NCC(=O)N[C@@H](CCCNC(=N)N)C(=O)N[C@@H]1CCCCNC(=O)[C@H](CCCCN)NC(=O)[C@@H](CCCCN)NC(=O)[C@@H](CCCCN)NC(=O)[C@H](CCCCN)NC1=O [Synthetic PAX2′] ({Tetradecanoyl(3R-OH)}-GR[dK]K[dK][dK]K; lactam 3-C (inferred)) | – | 375 (≈ 347 µM) | 375 (≈ 347 µM) | 187.5 µg/mL (≈ 174 µM) | 62.5 (≈ 57.8 µM) | 125 (≈ 116 µM) | 62.5 (≈ 57.8 µM) | 62.5 (≈ 57.8 µM) | 31.25 (≈ 28.9 µM) | 1.95 (≈ 1.8 µM) | 62.5 (≈ 57.8 µM) | 125 (≈ 116 µM) | 125 (≈ 116 µM) | 125 (≈ 116 µM) |
| CCCCCCCCCCCCC[C@@H](O)CC(=O)NCC(=O)N[C@@H](CCCCN)C(=O)N[C@@H]1CCCCNC(=O)[C@H](CCCCN)NC(=O)[C@@H](CCCCN)NC(=O)[C@@H](CCCCN)NC(=O)[C@H](CCCCN)NC1=O [Synthetic PAX7] ({Hexadecanoyl(3R-OH)}-GK[dK]K[dK][dK]K; lactam 3-C (inferred)) | 187.5 (≈ 174 µM) | – | 375 (≈ 347 µM) | – | 62.5 (≈ 57.8 µM) | 125 (≈ 116 µM) | 31.25 (≈ 28.9 µM) | 62.5 (≈ 57.8 µM) | 15.63 (≈ 14.5 µM) | 0.49 (≈ 0.453 µM) | 62.5 (≈ 57.8 µM) | 62.5 (≈ 57.8 µM) | 62.5 (≈ 57.8 µM) | 125 (≈ 116 µM) |
| GKPRPYSPRPTSHPRPIRV [Drosocin, drosocin] | – | – | – | >50 µg/mL | – | – | – | – | – | – | – | – | – | – |
| SWLSKTAKKLENSAKKRISEGIAIAIQGGPR [Cecropin P1, cecropin P1] | >12.5 | – | 12.5 | – | – | – | – | – | – | – | – | – | – | – |
| cecropin B1 | 6.25 | 6.25 | 6.25 | – | – | – | – | – | – | – | – | – | – | – |
| cecropin C | 12.5 | 12.5 | 25 | – | – | – | – | – | – | – | – | – | – | – |
